Measurements from patent US9775831B2, “Combinations comprising biphenyl derivatives for use in the treatment of HCV” (BRISTOL-MYERS SQUIBB COMPANY, priority 2013, dated 2017).

Test system: genotype-1a variant with glutamine 30 changed to glutamate in the NS5A protein
Experiment: HCV replicon cell-based assay, NS5A synergy with BMS-790052
Conditions: genotype 1a Q→E variant; test compound titrated in combination with NS5A-targeting compound (BMS-790052 fixed at 200 nM)
Description: The NS5A synergistic inhibitory effect of test compounds can be determined using various amounts of an NS5A-targeting compound with titration of a second compound of interest. […] In one embodiment, the HCV genotype strain can be genotype 1a containing a change at amino acid 30 of the NS5A protein consisting of glutamine to glutamate. The test compound can be chosen from compounds listed above or from others present in the literature.

Structure (SMILES)	Fold Synergistic (1a-QE)
O=C(C[C@@H](CCC(F)(F)F)c1ncc(-c2ccc(-c3ccc(-c4cnc([C@H](CCC(F)(F)F)CC(=O)N5CCC(F)CC5)[nH]4)cc3)cc2)[nH]1)N1CCC(F)CC1 [Example MD-2]	>100 Fold
CC(C)[C@H](CC(=O)NCC(C)(C)O)c1ncc(-c2ccc(-c3ccc(-c4cnc([C@@H](CC(=O)NCC(C)(C)O)C(C)C)[nH]4)cc3)cc2)[nH]1 [Example MD-41]	>10 Fold
CC(C)[C@H](CC(=O)NCC(C)(c1ccccc1)c1ccccc1)c1ncc(-c2ccc(-c3ccc(-c4cnc([C@@H](CC(=O)NCC(C)(c5ccccc5)c5ccccc5)C(C)C)[nH]4)cc3)cc2)[nH]1 [MD-28]	>100 Fold
CC(C)[C@H](CC(=O)N(C)C1CCOCC1)c1ncc(-c2ccc(-c3ccc(-c4cnc([C@@H](CC(=O)N(C)C5CCOCC5)C(C)C)[nH]4)cc3)cc2)[nH]1 [MD-50]	<10 Fold
CC(C)[C@H](CC(=O)NCC1(c2ccccc2)CCCCC1)c1ncc(-c2ccc(-c3ccc(-c4cnc([C@@H](CC(=O)NCC5(c6ccccc6)CCCCC5)C(C)C)[nH]4)cc3)cc2)[nH]1 [MD-23]	>100 Fold
CC(C)CNC(=O)C[C@@H](C)c1nc(-c2ccc(-c3ccc(-c4c[nH]c([C@H](C)CC(=O)NCC(C)C)n4)cc3)cc2)c[nH]1 [Example MD-11]	>100 Fold
COC(=O)NN(C(=O)[C@@H]1OCO[C@H]1c1ncc(-c2ccc(-c3ccc(-c4cnc([C@@H]5OCO[C@H]5C(=O)N(NC(=O)OC)C(C)C)[nH]4)cc3)cc2)[nH]1)C(C)C [MD-17]	<10 Fold
CC(C)NC(=O)CN(C)C(=O)C[C@H](c1ncc(-c2ccc(-c3ccc(-c4cnc([C@@H](CC(=O)N(C)CC(=O)NC(C)C)C(C)C)[nH]4)cc3)cc2)[nH]1)C(C)C [MD-48]	<10 Fold
COC(=O)NN(C(=O)[C@@H]1OC(C)(C)O[C@H]1c1ncc(-c2ccc(-c3ccc(-c4cnc([C@@H]5OC(C)(C)O[C@H]5C(=O)N(NC(=O)OC)C(C)C)[nH]4)cc3)cc2)[nH]1)C(C)C [MD-8]	<10 Fold
CCO[C@H](CC(=O)NCC(C)C)C(=O)N[C@H](c1ncc(-c2ccc(-c3ccc(-c4cnc([C@@H](NC(=O)[C@@H](CC(=O)NCC(C)C)OCC)C(C)(C)C)[nH]4)cc3)cc2)[nH]1)C(C)(C)C [MD-34]	>100 Fold
CC(C)[C@H](CC(=O)NCc1ccccc1Cl)c1ncc(-c2ccc(-c3ccc(-c4cnc([C@@H](CC(=O)NCc5ccccc5Cl)C(C)C)[nH]4)cc3)cc2)[nH]1 [Example MD-19]	>100 Fold
CC(C)[C@H](CC(=O)NCC(C)(C)CO)c1ncc(-c2ccc(-c3ccc(-c4cnc([C@@H](CC(=O)NCC(C)(C)CO)C(C)C)[nH]4)cc3)cc2)[nH]1 [MD-42]	>10 Fold
CC(C)CNC(=O)C[C@@H](CCC(F)(F)F)c1ncc(-c2ccc(-c3ccc(-c4cnc([C@H](CCC(F)(F)F)CC(=O)O)[nH]4)cc3)cc2)[nH]1 [Example MD-4]	<10 Fold
CC(C)CNC(=O)C[C@@H](CCC(F)(F)F)c1ncc(-c2ccc(-c3ccc(-c4cnc([C@H](CCC(F)(F)F)CC(=O)NCC(C)C)[nH]4)cc3)cc2)[nH]1 [Example MD-3]	>10 Fold
CCCCN(C(=O)C[C@H](c1ncc(-c2ccc(-c3ccc(-c4cnc([C@@H](CC(=O)N(CCCC)C(C)C)C(C)C)[nH]4)cc3)cc2)[nH]1)C(C)C)C(C)C [MD-26]	>10 Fold
C[C@H](CC(=O)N1CCC(F)(F)CC1)c1nc(-c2ccc(-c3ccc(-c4c[nH]c([C@H](C)CC(=O)N5CCC(F)(F)CC5)n4)cc3)cc2)c[nH]1 [Example MD-13]	>100 Fold
C[C@H](CC(=O)NCC1CC1)c1ncc(-c2ccc(-c3ccc(-c4cnc([C@H](C)CC(=O)NCC5CC5)[nH]4)cc3)cc2)[nH]1 [Example MD-38]	>100 Fold
CCO[C@H](CC(=O)NCC(C)C)c1nc(-c2ccc(-c3ccc(-c4c[nH]c([C@@H](CC(=O)NCC(C)C)OCC)n4)cc3)cc2)c[nH]1 [Example MD-6]	>10 Fold
